Earlier results on 1 compound are cited in US20110159092A1 (MICRO LABS LIMITED, priority 2009, published 2011).

SMILES strings stand for the structures.

One series relates to bacteria. Particulars: background statement.
Another series deals with enterococci. Particulars: against enterococci.
The next series has as its system staphylococci. The following applies: against staphylococci.
In the next series the test system is streptococci. Particulars: majority of strains.

As a reminder, the MIC is the lowest concentration found to suppress growth. As to `CC(=O)NC[C@H]1CN(c2ccc(N3CCOCC3)c(F)c2)C(=O)O1` [Linezolid, (S)-N-({3-[3-fluoro-4-(morpholin-4-yl)phenyl]-2-oxo-1,3-oxazolidin-5-yl}methyl)acetamide], the minimal inhibitory concentration (MIC) with bacteria is 1 to 4 µg/mL. The time-kill result in the series with enterococci was “bacteriostatic”; in the series on staphylococci, “bacteriostatic”; in the series on streptococci, “bactericidal”.
